Measured values taken from the METLIN SMRT retention time set (Domingo-Almenara et al. 2019).

Test: gradient 5% acetonitrile 3 min, to 50% in 2 min, to 85% in 15 min, held 3 min, 100 µL/min
Details: column: Zorbax Extend-C18 2.1 x 50 mm; eluents: water / acetonitrile, 0.1% formic acid
Method in brief: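 Retention time was recorded from adduct peaks, which were picked computationally and each inspected manually. Pure standards ran in mixtures of ~100 molecules on HPLC coupled to a quadrupole time-of-flight mass spectrometer, in positive and negative ionization mode, through a Zorbax Extend-C18 column (2.1 × 50 mm, 1.8 μm) at 100 μL/min. Eluents were water and acetonitrile, each with 0.1% formic acid.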

| Compound | RP-LC retention time [s] |
| --- | --- |
| Cc1ccc(C2=NC3(CCN(C(=O)c4ccc5ccccc5n4)CC3)ON2)cc1 | 809 |
| COC(=O)c1nnn(-c2ccc(C(C)C)cc2)c1C(=O)OC | 996 |
| COc1cccc(CNC(=O)C2CCCN(c3nc4ccccc4nc3OC)C2)c1 (centres undefined) | 1010 |
| Cc1cc(=O)n(CC(=O)Nc2ccccc2)c(-c2ccc(Cl)cc2)n1 | 1100 |
| CN(Cc1ccccc1)C(=O)Cn1cccc1-c1nnc(-c2ccccc2)o1 | 940 |
| Cc1oc(-c2[nH]ncc2C(=O)N2CCCCC2)cc1S(=O)(=O)Nc1ccc(Cl)cc1 | 799 |
| Cn1cc(CC(=O)NCc2ccc(F)cc2)c2cccnc21 | 669 |
| COc1ccc(N2C(=O)C(O)=C(S(=O)(=O)c3ccccc3)C2c2ccccc2)cc1 (centres undefined) | 854 |
| CCc1ccc(-n2nnc(C(=O)N3CCC4(CC3)OCCO4)c2-c2cccnc2)cc1 | 783 |
| Cn1cc(-c2cc3n(n2)CCC(=O)N3CCCC(=O)Nc2ccc(F)cc2F)c2ccccc21 | 860 |
| CCOc1ccc(CC(=O)N2C[C@@H]3C[C@H]2C[C@@H]3NS(=O)(=O)c2cccs2)cc1 | 791 |
| COc1ccc(Cl)cc1NC(=O)CN1CCN(c2ccccc2F)CC1 | 709 |
| O=C(c1cc(=O)c2ccccc2o1)N1CCC(c2nnc(-c3ccc(F)cc3)o2)CC1 | 746 |
| COc1cccc(C(O)CN2CCN(c3ccccc3F)CC2)c1 (centres undefined) | 654 |
| COc1cccc(-c2cc3n(n2)CCCN(C(=O)c2ccc(OC)c(OC)c2)C3)c1 | 654 |
| O=C(c1noc2c1CCCC2)N1CCN(c2ccccn2)CC1 | 613 |
| CN(C)c1ccc(CNC(=O)c2ccc3c(c2)NC(=O)C2CCCCN32)cc1 (centres undefined) | 617 |
| O=C(Cc1cccs1)N1CCc2c([nH]c3ccccc23)C1c1ccc(F)cc1 (centres undefined) | 1130 |
| CCc1nc(-c2cc(S(=O)(=O)N3CCC(C(=O)NCc4cccs4)CC3)c(C)s2)no1 | 967 |
| CCN1CCN(C(=O)C2CCN(S(=O)(=O)c3c(C)nn(-c4ccc(F)cc4)c3C)CC2)CC1 | 641 |
| COc1ccc(C2CC(=O)N(c3ccc(F)cc3F)C(=O)C2)cc1 | 931 |
| C[C@H]1CN(S(=O)(=O)c2ccccc2F)C[C@@H]1c1nc(-c2ccncc2)no1 | 884 |
| CNC(=O)c1nc(C(=O)NCCc2ccc(Cl)cc2)cs1 | 771 |

| Compound | RP-LC retention time [s] |
| --- | --- |
| Cn1nccc1C(=O)N1CCN(c2cc(-c3ccccc3)[nH]n2)CC1 | 671 |
| CCOC(=O)C1=C(C)NC(=O)NC1c1cn(-c2ccccc2)nc1-c1ccc(OCC)cc1 (centres undefined) | 946 |
| O=C(c1cc(-c2ccccn2)n[nH]1)N1CCCC(C(=O)N2CCc3ccccc3C2)C1 (centres undefined) | 688 |
| CN(C)CCNC(=O)C1CCc2sc(C(=O)N3CCCC3)cc2C1 (centres undefined) | 660 |
| COCCCNC(=O)CCC[C@@H]1[C@H]2CCCN3CCC[C@@H](CN1C)[C@@H]23 | 709 |
| CCc1noc(C2(NC(=O)c3ccc(Cl)cc3)CCCCC2)n1 | 1010 |
| CCc1cccc(NS(=O)(=O)c2c[nH]c3ncccc23)c1 | 762 |
| O=C(NCC1(CO)CC1)c1cccc(C(F)(F)F)c1 | 691 |
| Cc1nc(-c2cccc(F)c2)sc1C(=O)N(C)C | 799 |
| CCOC(=O)C(=O)N1CCN(c2ncnc3c2nnn3C)CC1 | 643 |
| Cc1nnc(-c2ccc3ccn(CC(=O)NCC(C)c4ccccc4)c3c2)o1 (centres undefined) | 793 |
| O=C(NCc1ccc(F)cc1)N1CCN(Cc2nc3cc(-c4ccccc4)ccc3o2)CC1 | 850 |
| Cn1nccc1C(=O)N1CCN(C(=O)c2cc(-c3ccncc3)n[nH]2)CC1 | 523 |
| O=S(=O)(Nc1ccc2c(c1)OCO2)c1ccc2ccccc2c1 | 953 |
| CC(=O)N(Cc1nn(C)c2c1CN(S(=O)(=O)c1ccc(F)c(Cl)c1)CC2)c1ccccc1 | 860 |
| COc1cccc(CNC(=O)C2CCN(S(=O)(=O)c3ccc4c(c3)CCCC(=O)N4)CC2)c1 | 713 |
| COc1ccc(N2CCN(S(=O)(=O)N(C)C)CC2)cc1 | 736 |
| O=C(NCCN1CCCCCC1)c1nc(-c2ccnc(N3CCCCC3)c2)no1 | 577 |
| CCC(=O)Nc1nc(-c2ccccc2)cs1 | 836 |
| COc1cccc(S(=O)(=O)NCc2cccnc2-c2ccc(C)cc2)c1 | 695 |
| CCOC(=O)c1c(C)[nH]c(C(=O)N2CCC(C(C)C(=O)N3CCCC3)CC2)c1C (centres undefined) | 715 |
| CCOC(=O)N1CCN(Cc2nc(-c3ccc(N4CCCC4)nc3)no2)CC1 | 604 |
| Cc1cc(C)c(NC(=O)Cn2cnc3c(sc4nc(-c5ccccc5)ccc43)c2=O)c(C)c1 | 1050 |

| Compound | RP-LC retention time [s] |
| --- | --- |
| Cc1cccc(NC(=O)C2CCCN(c3ccc(=O)n(-c4cccc(Cl)c4)n3)C2)c1C (centres undefined) | 960 |
| O=C(COc1ccc(Cl)cc1)NCC1CCOCC1 | 764 |
| CCCCN(CC)S(=O)(=O)c1ccc(C(=O)Nc2nc3c(s2)Cc2ccccc2-3)cc1 | 1230 |
| Cn1cc(C(=O)NCc2cccc(Cl)c2)c(S(=O)(=O)N2CCSCC2)n1 | 892 |
| O=C(Cn1nc(C(=O)N2CCOCC2)c2ccccc21)NCc1ccc(F)cc1 | 715 |
| CCC(C)NC(=O)Cn1nc2cc(C)nc(-c3ccc(C(F)(F)F)cc3)n2c1=O (centres undefined) | 661 |
| C=CCNC(=O)c1nnc2n(c1=O)CCN2c1ccc(F)cc1 | 622 |
| Cc1ccc2c(Nc3ccc(C)c(F)c3)c(C(=O)N3CCOCC3)cnc2n1 | 599 |
| O=S(=O)(c1cc(-c2noc(C3CCCC3)n2)cs1)N(Cc1cccs1)C1CCCC1 | 933 |
| CC(C)NC(=O)N1CCN(c2nc3ccccc3n(Cc3ccccc3)c2=O)CC1 | 912 |
| COc1cccc(C(=O)N2C[C@@H]3C[C@H](NC(=O)c4ccccc4)[C@H]2C3)c1OC | 682 |
| CCOc1cccc(CN2Cc3ccccc3OC3(CCN(CCOC)CC3)C2)c1 | 619 |
| O=S(=O)(Nc1ccc(Cn2cncn2)cc1)c1ccc2c(c1)CCCC2 | 786 |
| CC(C)S(=O)(=O)c1ccc(C(=O)N2CC(=O)Nc3ccccc32)cc1 | 653 |
| Cc1c(N2CCN(C(=O)C3CCCCC3)CC2)c(=O)n(C)c(=O)n1-c1ccccc1 | 881 |
| O=C(N[C@@H]1CN(c2ncccn2)C[C@H]1CO)c1ccc2c(c1)OCO2 | 606 |
| COCCN1C(=O)c2ccccc2C(C(=O)NCc2cccc(F)c2)C12CCCC2 (centres undefined) | 866 |
| O=C(Cn1nc2c(Oc3ccccc3)nccn2c1=O)Nc1ccc(Br)cc1F | 898 |
| Cc1noc(C)c1S(=O)(=O)NCC(c1cccs1)S(=O)(=O)c1ccc(F)cc1 (centres undefined) | 847 |
| CC(=O)Nc1ccc(C2(C(=O)N3CCCCC3)CCC2)cc1 | 711 |
| COc1ccc(NC(=O)N2CCC3(C2)C(=O)N(C)c2ccccc23)cc1F (centres undefined) | 785 |
| Cc1nc(-c2ccc(C(=O)NC3CCCCC3)cc2)cs1 | 900 |
| Cc1ccccc1CNC(=O)C1(C)CCCN(C(=O)Nc2cccc(C)c2C)C1 (centres undefined) | 977 |

| Compound | RP-LC retention time [s] |
| --- | --- |
| COC(=O)c1ccc(C(=O)OC)c(NC(=O)CSc2nc(C)cc(C)n2)c1 | 852 |
| CCCC(=O)NC1CCN(c2ccc(C)cc2)C1=O (centres undefined) | 714 |
| COc1ccc(CNC(=O)C2(c3ccc(NC(C)=O)cc3)CCCCC2)c(OC)c1 | 841 |
| Cc1csc(-c2csc(S(=O)(=O)N3CCCCCC3)c2)n1 | 1090 |
| COc1ccccc1NC(=O)C1C(=O)NC2(C)CC1c1ccccc1O2 (centres undefined) | 905 |
| CCCCCCOC(=O)[C@@]1(O)CC2O[C@]1(C)n1c3ccccc3c3c4c(c5c6ccccc6n2c5c31)C(=O)NC4 | 1230 |
| Cc1oc(-c2[nH]ncc2C(=O)N2CCCC2)cc1S(=O)(=O)N1CCN(C)CC1 | 574 |
| COc1cccc(C2Cn3nnc(-c4nc(-c5ccccc5F)no4)c3CO2)c1 (centres undefined) | 1100 |
| O=C(NC1CN2CCC1CC2)c1cc2ccoc2cn1 (centres undefined) | 620 |
| CCOC(=O)c1c(C)c(CCC(=O)NCc2ccco2)n(C)c1C | 792 |
| CCN(CCNC(=O)c1cc2c(s1)CN(C(C)C)C2)c1cccc(C)c1 | 573 |
| CCc1cccc(C)c1NC(=O)CCC(=O)N1CCOc2ccccc21 | 854 |
| CCCN1C(=O)C(CC(=O)N2CCN(C)CC2)Sc2ncccc21 (centres undefined) | 576 |
| COc1ccccc1N1CCN(c2cc(SCC(=O)Nc3ccc4c(c3)OCO4)ncn2)CC1 | 900 |
| CCOCCCNC(=O)N1CCCC(c2nn[nH]n2)C1 (centres undefined) | 591 |
| CC(=O)Oc1ccccc1C1=NN(C(C)=O)C(c2ccccc2Cl)O1 (centres undefined) | 974 |
| Cc1ccc(N2CCC(NC(=O)c3ccc(Br)o3)C2=O)cc1C (centres undefined) | 882 |
| Cc1cc2c(cc1S(=O)(=O)N1CCCC1C(=O)NCc1ccc3c(c1)OCO3)OCC(=O)N2 (centres undefined) | 718 |
| Cc1cc(C)c2nc(-c3ccc4ccccc4c3)cc(C(=O)O)c2c1 | 1310 |
| COc1ccc(N2CCN(C(=O)c3[nH]c(C)c(S(=O)(=O)N4CCCC4)c3C)CC2)cc1 | 748 |
